Test results as given in ChEMBL document CHEMBL2390945, “Synthesis and characterization of 123I-CMICE-013: a potential SPECT myocardial perfusion imaging agent” (Bioorg Med Chem, 2013).

Assays:
[1] = Drug uptake in Sprague-Dawley rat myocardium at 37 to 111 MBq, iv measured for 60 mins by TTC staining-based micro-SPECT analysis; format: ADME, organism-based; conditions: in vivo, 1 h
Intestine [2] = assay: Biodistribution in Sprague-Dawley rat intestine at 37 to 111 MBq, iv measured at 24 hrs by gamma counting analysis; format: ADME, organism-based; conditions: in vivo
Brain [3] = assay: Biodistribution in Sprague-Dawley rat brain at 37 to 111 MBq, iv measured at 2 hrs by gamma counting analysis; format: ADME, organism-based; conditions: in vivo
Rattus norvegicus [4] = assay: Biodistribution in Sprague-Dawley rat testis at 37 to 111 MBq, iv measured at 2 hrs by gamma counting analysis; format: ADME, organism-based; conditions: in vivo
Thyroid gland [5] = assay: Biodistribution in Sprague-Dawley rat thyroid assessed per organ at 37 to 111 MBq, iv measured at 24 hrs by gamma counting analysis; format: ADME, organism-based; conditions: in vivo
Femur [6] = assay: Biodistribution in Sprague-Dawley rat femur at 37 to 111 MBq, iv measured at 2 hrs by gamma counting analysis; format: ADME, organism-based; conditions: in vivo
[7] = Biodistribution in Sprague-Dawley rat urine at 37 to 111 MBq, iv measured at 24 hrs by gamma counting analysis; format: ADME, organism-based; conditions: in vivo
Kidney [8] = assay: Biodistribution in Sprague-Dawley rat kidney at 37 to 111 MBq, iv measured at 24 hrs by gamma counting analysis; format: ADME, organism-based; conditions: in vivo
Brain [9] = assay: Biodistribution in Sprague-Dawley rat brain at 37 to 111 MBq, iv measured at 24 hrs by gamma counting analysis; format: ADME, organism-based; conditions: in vivo
Blood [10] = assay: Biodistribution in Sprague-Dawley rat blood at 37 to 111 MBq, iv measured at 24 hrs by gamma counting analysis; format: ADME, organism-based; conditions: in vivo
Blood [11] = assay: Biodistribution in Sprague-Dawley rat blood at 37 to 111 MBq, iv measured at 2 hrs by gamma counting analysis; format: ADME, organism-based; conditions: in vivo
Lung [12] = assay: Biodistribution in Sprague-Dawley rat lung at 37 to 111 MBq, iv measured at 24 hrs by gamma counting analysis; format: ADME, organism-based; conditions: in vivo
Rattus norvegicus [13] = assay: Biodistribution in Sprague-Dawley rat urinary bladder at 37 to 111 MBq, iv measured at 24 hrs by gamma counting analysis; format: ADME, organism-based; conditions: in vivo
Spleen [14] = assay: Biodistribution in Sprague-Dawley rat spleen at 37 to 111 MBq, iv measured at 24 hrs by gamma counting analysis; format: ADME, organism-based; conditions: in vivo
Femur [15] = assay: Biodistribution in Sprague-Dawley rat femur at 37 to 111 MBq, iv measured at 24 hrs by gamma counting analysis; format: ADME, organism-based; conditions: in vivo
Rattus norvegicus [16] = assay: Biodistribution in Sprague-Dawley rat stomach at 37 to 111 MBq, iv measured at 24 hrs by gamma counting analysis; format: ADME, organism-based; conditions: in vivo
Thyroid gland [17] = assay: Biodistribution in Sprague-Dawley rat thyroid at 37 to 111 MBq, iv measured at 24 hrs by gamma counting analysis; format: ADME, organism-based; conditions: in vivo
[18] = Ratio of drug level in heart to lung in Sprague-Dawley rat at 37 to 111 MBq, iv measured at 2 hrs; conditions: in vivo
[19] = Ratio of drug level in heart to blood in Sprague-Dawley rat at 37 to 111 MBq, iv measured at 2 hrs; format: ADME, organism-based
Liver [20] = assay: Drug uptake in Sprague-Dawley rat liver at 37 to 111 MBq, iv measured for 60 mins by TTC staining-based micro-SPECT analysis; format: ADME, organism-based; conditions: in vivo, 1 h
[21] = Drug uptake in left ventricle of Sprague-Dawley rat left anterior descending occlusion model at 74 MBq, iv measured for 60 mins by TTC staining-based micro-SPECT analysis; format: ADME, organism-based, Heart left ventricle; conditions: in vivo, 1 h
Thyroid gland [22] = assay: Drug uptake in Sprague-Dawley rat thyroid at 37 to 111 MBq, iv measured for 60 mins by TTC staining-based micro-SPECT analysis; format: ADME, organism-based; conditions: in vivo, 1 h
Ovary [23] = assay: Biodistribution in Sprague-Dawley rat ovary at 37 to 111 MBq, iv measured at 2 hrs by gamma counting analysis; format: ADME, organism-based, Female gonad; conditions: in vivo
Rattus norvegicus [24] = assay: Biodistribution in Sprague-Dawley rat testis at 37 to 111 MBq, iv measured at 24 hrs by gamma counting analysis; format: ADME, organism-based; conditions: in vivo
Ovary [25] = assay: Biodistribution in Sprague-Dawley rat ovary at 37 to 111 MBq, iv measured at 24 hrs by gamma counting analysis; format: ADME, organism-based, Female gonad; conditions: in vivo
[26] = Biodistribution in Sprague-Dawley rat urine at 37 to 111 MBq, iv measured at 2 hrs by gamma counting analysis; format: ADME, organism-based; conditions: in vivo
[27] = Ratio of drug level in heart to liver in Sprague-Dawley rat at 37 to 111 MBq, iv measured at 2 hrs; conditions: in vivo
[28] = Drug uptake in Sprague-Dawley rat parathyroid at 37 to 111 MBq, iv measured for 60 mins by TTC staining-based micro-SPECT analysis; format: ADME, organism-based, Thyroid gland; conditions: in vivo, 1 h
Rattus norvegicus [29] = assay: Biodistribution in Sprague-Dawley rat stomach at 37 to 111 MBq, iv measured at 2 hrs by gamma counting analysis; format: ADME, organism-based; conditions: in vivo
Muscle tissue [30] = assay: Biodistribution in Sprague-Dawley rat muscle at 37 to 111 MBq, iv measured at 24 hrs by gamma counting analysis; format: ADME, organism-based; conditions: in vivo
Lung [31] = assay: Biodistribution in Sprague-Dawley rat lung at 37 to 111 MBq, iv measured at 2 hrs by gamma counting analysis; format: ADME, organism-based; conditions: in vivo
Thyroid gland [32] = assay: Biodistribution in Sprague-Dawley rat thyroid at 37 to 111 MBq, iv measured at 2 hrs by gamma counting analysis; format: ADME, organism-based; conditions: in vivo
Spleen [33] = assay: Biodistribution in Sprague-Dawley rat spleen at 37 to 111 MBq, iv measured at 2 hrs by gamma counting analysis; format: ADME, organism-based; conditions: in vivo
Kidney [34] = assay: Biodistribution in Sprague-Dawley rat kidney at 37 to 111 MBq, iv measured at 2 hrs by gamma counting analysis; format: ADME, organism-based; conditions: in vivo
Thyroid gland [35] = assay: Biodistribution in Sprague-Dawley rat thyroid assessed per organ at 37 to 111 MBq, iv measured at 2 hrs by gamma counting analysis; format: ADME, organism-based; conditions: in vivo
Heart [36] = assay: Biodistribution in Sprague-Dawley rat heart at 37 to 111 MBq, iv measured at 2 hrs by gamma counting analysis; format: ADME, organism-based; conditions: in vivo
Intestine [37] = assay: Biodistribution in Sprague-Dawley rat intestine at 37 to 111 MBq, iv measured at 2 hrs by gamma counting analysis; format: ADME, organism-based; conditions: in vivo
[38] = Ratio of drug level in heart to blood in Sprague-Dawley rat at 37 to 111 MBq, iv measured at 24 hrs; format: ADME, organism-based
Muscle tissue [39] = assay: Biodistribution in Sprague-Dawley rat muscle at 37 to 111 MBq, iv measured at 2 hrs by gamma counting analysis; format: ADME, organism-based; conditions: in vivo
[40] = Ratio of drug level in heart to liver in Sprague-Dawley rat at 37 to 111 MBq, iv measured at 24 hrs; conditions: in vivo
Rattus norvegicus [41] = assay: Biodistribution in Sprague-Dawley rat urinary bladder at 37 to 111 MBq, iv measured at 2 hrs by gamma counting analysis; format: ADME, organism-based; conditions: in vivo
[42] = Ratio of drug level in heart to lung in Sprague-Dawley rat at 37 to 111 MBq, iv measured at 24 hrs; conditions: in vivo
Liver [43] = assay: Biodistribution in Sprague-Dawley rat liver at 37 to 111 MBq, iv measured at 2 hrs by gamma counting analysis; format: ADME, organism-based; conditions: in vivo
Heart [44] = assay: Biodistribution in Sprague-Dawley rat heart at 37 to 111 MBq, iv measured at 24 hrs by gamma counting analysis; format: ADME, organism-based; conditions: in vivo
[45] = Drug uptake in left ventricle of Sprague-Dawley rat ischemia reperfusion injury model at 74 MBq, iv measured for 60 mins by TTC staining-based micro-SPECT analysis; format: ADME, organism-based, Heart left ventricle; conditions: in vivo, 1 h
Liver [46] = assay: Biodistribution in Sprague-Dawley rat liver at 37 to 111 MBq, iv measured at 24 hrs by gamma counting analysis; format: ADME, organism-based; conditions: in vivo
Lung [47] = assay: Drug uptake in Sprague-Dawley rat lung at 37 to 111 MBq, iv measured for 60 mins by TTC staining-based micro-SPECT analysis; format: ADME, organism-based; conditions: in vivo, 1 h

For `COc1cc2c(cc1OC)[C@@H]1C(=O)c3ccc4c(c3O[C@@H]1CO2)C[C@H](C(C)(O)C[123I])O4` (some centres not stated), the Drug uptake [1] was “Active”, the Drug uptake (Intestine [2]) was 0.122 % ID/g and the Drug uptake (Brain [3]) was 0.098 % ID/g. For the same compound, the Drug uptake (Rattus norvegicus [4]) was 0.22 % ID/g, the Drug uptake (Thyroid gland [5]) was 3.16 %ID and the Drug uptake (Femur [6]) was 0.242 % ID/g. The Drug uptake [7] was 0.768 % ID/g, the Drug uptake (Kidney [8]) was 0.044 % ID/g and the Drug uptake (Brain [9]) was 0.003 % ID/g. It also gave a Drug uptake (Blood [10]) of 0.06 % ID/g, a Drug uptake (Blood [11]) of 0.257 % ID/g and a Drug uptake (Lung [12]) of 0.055 % ID/g. For the same compound, the Drug uptake (Rattus norvegicus [13]) was 0.768 % ID/g, the Drug uptake (Spleen [14]) was 0.032 % ID/g and the Drug uptake (Femur [15]) was 0.025 % ID/g. The Drug uptake (Rattus norvegicus [16]) was 2.121 % ID/g, the Drug uptake (Thyroid gland [17]) was 13.329 % ID/g and the Ratio [18] was 4.11. The Kp at 2 h [19] was 8.37, the Drug uptake (Liver [20]) was “Not Active” and the Drug uptake [21] was “Active”. The Drug uptake (Thyroid gland [22]) was “Active”, the Drug uptake (Ovary [23]) was 0.22 % ID/g and the Drug uptake (Rattus norvegicus [24]) was 0.04 % ID/g. The Drug uptake (Ovary [25]) was 0.04 % ID/g, the Drug uptake [26] was 0.918 % ID/g and the Ratio [27] was 2.98. The Drug uptake [28] was “Active”, the Drug uptake (Rattus norvegicus [29]) was 3.263 % ID/g and the Drug uptake (Muscle tissue [30]) was 0.024 % ID/g. For the same compound, the Drug uptake (Lung [31]) was 0.502 % ID/g, the Drug uptake (Thyroid gland [32]) was 1.368 % ID/g and the Drug uptake (Spleen [33]) was 0.234 % ID/g. It also gave a Drug uptake (Kidney [34]) of 0.7 % ID/g, a Drug uptake (Thyroid gland [35]) of 0.334 %ID and a Drug uptake (Heart [36]) of 2.01 % ID/g. The Drug uptake (Intestine [37]) was 0.846 % ID/g, the Kp at 24 h [38] was 0.79 and the Drug uptake (Muscle tissue [39]) was 0.357 % ID/g. It also gave a Ratio [40] of 1.08, a Drug uptake (Rattus norvegicus [41]) of 0.918 % ID/g and a Ratio [42] of 0.85. The Drug uptake (Liver [43]) was 0.709 % ID/g, the Drug uptake (Heart [44]) was 0.045 % ID/g and the Drug uptake [45] was “Active”. The Drug uptake (Liver [46]) was 0.042 % ID/g and the Drug uptake (Lung [47]) was “Not Active”.
